Assay results as given in ChEMBL document CHEMBL1240307, “A functional genomics approach to the mode of action of apratoxin A” (Nat Chem Biol, 2006).

How the values were obtained:
SR = experiment: Cytotoxicity against human SR cells by sulforhodamine B assay; type: functional
HT-29 [1] = experiment: Antitumor activity against human HT-29 cells assessed as upregulation of KCNK10 mRNA expression at 10 nM after 3 hrs relative to control; type: functional
MDA-MB-435 = experiment: Cytotoxicity against human MDA-MB-435 cells by sulforhodamine B assay; type: functional
U2OS [2] = experiment: Cell cycle arrest in human U2OS cells assessed as accumulation at S phase at 50 nM after 48 hrs by FACS analysis (reference value: 37.3%); type: functional
CAKI-1 = experiment: Cytotoxicity against human Caki1 cells by sulforhodamine B assay; type: functional
TK-10 = experiment: Cytotoxicity against human TK10 cells by sulforhodamine B assay; type: functional
HT-29 [3] = experiment: Antitumor activity against human HT-29 cells assessed as down-regulation of CCNE2 mRNA expression at 10 nM after 6 hrs relative to control; type: functional
HT-29 [4] = experiment: Antitumor activity against human HT-29 cells assessed as down-regulation of CDC25A mRNA expression at 2 nM after 3 hrs relative to control; type: functional
U2OS [5] = experiment: Cell cycle arrest in human U2OS cells assessed as accumulation at G1 phase at 50 nM after 24 hrs by FACS analysis (reference value: 49.8%); type: functional
OVCAR-8 = experiment: Cytotoxicity against human OVCAR8 cells by sulforhodamine B assay; type: functional
U2OS [6] = experiment: Cell cycle arrest in human U2OS cells assessed as accumulation at G1 phase at 5 nM after 48 hrs by FACS analysis (reference value: 49.8%); type: functional
HT-29 [7] = experiment: Antitumor activity against human HT-29 cells assessed as upregulation of DDIT4 mRNA expression at 2 nM after 6 hrs relative to control; type: functional
U-251 = experiment: Cytotoxicity against human U251 cells by sulforhodamine B assay; type: functional
HCT-15 = experiment: Cytotoxicity against human HCT15 cells by sulforhodamine B assay; type: functional
ACHN = experiment: Cytotoxicity against human ACHN cells by sulforhodamine B assay; type: functional
HT-29 [8] = experiment: Antitumor activity against human HT-29 cells assessed as down-regulation of CCNE2 mRNA expression at 10 nM after 12 hrs relative to control; type: functional
UACC-62 = experiment: Cytotoxicity against human UACC62 cells by sulforhodamine B assay; type: functional
UO-31 = experiment: Cytotoxicity against human UO31 cells by sulforhodamine B assay; type: functional
HT-29 [9] = experiment: Antitumor activity against human HT-29 cells assessed as upregulation of RASSF4 mRNA expression at 10 nM after 12 hrs relative to control; type: functional
NCI-H23 = experiment: Cytotoxicity against human NCI-H23 cells by sulforhodamine B assay; type: functional
SNB-75 = experiment: Cytotoxicity against human SNB75 cells by sulforhodamine B assay; type: functional
HT-29 [10] = experiment: Antitumor activity against human HT-29 cells assessed as down-regulation of CDC25A mRNA expression at 10 nM after 12 hrs relative to control; type: functional
786-0 = experiment: Cytotoxicity against human 786-0 cells by sulforhodamine B assay; type: functional
HT-29 [11] = experiment: Antitumor activity against human HT-29 cells assessed as down-regulation of RAB11B mRNA expression at 2 nM after 12 hrs relative to control; type: functional
HT-29 [12] = experiment: Antitumor activity against human HT-29 cells assessed as upregulation of DDIT4 mRNA expression at 10 nM after 12 hrs relative to control; type: functional
HT-29 [13] = experiment: Antitumor activity against human HT-29 cells assessed as upregulation of KCNK10 mRNA expression at 10 nM after 6 hrs relative to control; type: functional
HT-29 [14] = experiment: Antitumor activity against human HT-29 cells assessed as down-regulation of GTSE1 mRNA expression at 10 nM after 12 hrs relative to control; type: functional
M14 = experiment: Cytotoxicity against human M14 cells by sulforhodamine B assay; type: functional
OVCAR-5 = experiment: Cytotoxicity against human OVCAR5 cells by sulforhodamine B assay; type: functional
OVCAR-4 = experiment: Cytotoxicity against human OVCAR4 cells by sulforhodamine B assay; type: functional
HT-29 [15] = experiment: Antitumor activity against human HT-29 cells assessed as down-regulation of TAL1 mRNA expression at 10 nM after 6 hrs relative to control; type: functional
HT-29 [16] = experiment: Antitumor activity against human HT-29 cells assessed as upregulation of KCNK10 mRNA expression at 2 nM after 12 hrs relative to control; type: functional
HT-29 [17] = experiment: Antitumor activity against human HT-29 cells assessed as down-regulation of CDC25A mRNA expression at 10 nM after 3 hrs relative to control; type: functional
HT-29 [18] = experiment: Antitumor activity against human HT-29 cells assessed as down-regulation of CCNE2 mRNA expression at 2 nM after 6 hrs relative to control; type: functional
NCI-H522 = experiment: Cytotoxicity against human NCI-H522 cells by sulforhodamine B assay; type: functional
U2OS [19] = experiment: Cell cycle arrest in human U2OS cells assessed as accumulation at sub-G1 phase at 50 nM after 48 hrs by FACS analysis relative to control; type: functional
SN12C = experiment: Cytotoxicity against human SN12C cells by sulforhodamine B assay; type: functional
HT-29 [20] = experiment: Antitumor activity against human HT-29 cells assessed as down-regulation of TAL1 mRNA expression at 2 nM after 3 hrs relative to control; type: functional
HT-29 [21] = experiment: Cytotoxicity against human HT-29 cells by sulforhodamine B assay; type: functional
HT-29 [22] = experiment: Antitumor activity against human HT-29 cells assessed as down-regulation of GTSE1 mRNA expression at 10 nM after 6 hrs relative to control; type: functional
U2OS [23] = experiment: Induction of apoptosis in human U2OS cells assessed as caspase3 dependent cleavage of Ac-DEVD-pNA at 50 nM after 6-48 hrs by […] relative to control; type: functional
HT-29 [24] = experiment: Antitumor activity against human HT-29 cells assessed as upregulation of MGC4504 mRNA expression at 2 nM after 12 hrs relative to control; type: functional
[25] = Cytotoxicity against resting human CD4+ T cell assessed as cell viability after 3 days by fluorescence detection method; type: cell-based; details: 72 h
HT-29 [26] = experiment: Antitumor activity against human HT-29 cells assessed as upregulation of RASSF4 mRNA expression at 2 nM after 6 hrs relative to control; type: functional
SF-268 = experiment: Cytotoxicity against human SF268 cells by sulforhodamine B assay; type: functional
RXF 393 = experiment: Cytotoxicity against human RXF393 cells by sulforhodamine B assay; type: functional
HT-29 [27] = experiment: Antitumor activity against human HT-29 cells assessed as down-regulation of RAB11B mRNA expression at 10 nM after 12 hrs relative to control; type: functional
SK-MEL-5 = experiment: Cytotoxicity against human SK-MEL-5 cells by sulforhodamine B assay; type: functional
HT-29 [28] = experiment: Antitumor activity against human HT-29 cells assessed as down-regulation of CDC25A mRNA expression at 2 nM after 12 hrs relative to control; type: functional
SNB-19 = experiment: Cytotoxicity against human SNB19 cells by sulforhodamine B assay; type: functional
Malme-3M = experiment: Cytotoxicity against human MALME-3M cells by sulforhodamine B assay; type: functional
[29] = read-out: LC50 (the source's name)

CC[C@H](C)[C@H]1C(=O)N2CCC[C@H]2C(=O)O[C@H](C(C)(C)C)C[C@@H](C)C[C@H](O)[C@H](C)C2=N[C@@H](/C=C(\C)C(=O)N[C@@H](Cc3ccc(OC)cc3)C(=O)N(C)[C@@H](C)C(=O)N1C)CS2 [APRATOXIN A]
GI50 (SR): 1.5 nM | CC50 (SR; [29]): 27.4 nM | fold change (FC) (HT-29 [1]): 10.01 | GI50 (MDA-MB-435): 3.35 nM | inhibition at 0.05 µM (U2OS [2]): 0.8% | GI50 (CAKI-1): 4.05 nM | GI50 (TK-10): 2.63 nM | fold change (FC) (HT-29 [3]): <=2 | fold change (FC) (HT-29 [4]): <=2 | inhibition at 0.05 µM (U2OS [5]): 68.3% | GI50 (OVCAR-8): 7.26 nM | inhibition at 0.005 µM (U2OS [6]): 82.1% | fold change (FC) (HT-29 [7]): 10.37 | GI50 (U-251): 1.56 nM | GI50 (HCT-15): 4.29 nM | GI50 (ACHN): 2.69 nM | fold change (FC) (HT-29 [8]): -2.17 | GI50 (UACC-62): 3.28 nM | GI50 (UO-31): 2.95 nM | fold change (FC) (HT-29 [9]): <=2 | GI50 (NCI-H23): 8.23 nM | GI50 (SNB-75): 1.96 nM | fold change (FC) (HT-29 [10]): -2.79 | GI50 (786-0): 4.52 nM | fold change (FC) (HT-29 [11]): <=2 | fold change (FC) (HT-29 [12]): 6.82 | fold change (FC) (HT-29 [13]): 7.38 | fold change (FC) (HT-29 [14]): -2.35 | GI50 (M14): 2.09 nM | GI50 (OVCAR-5): > 100 nM | GI50 (OVCAR-4): > 100 nM | fold change (FC) (HT-29 [15]): <=2 | fold change (FC) (HT-29 [16]): <=2 | fold change (FC) (HT-29 [17]): <=2 | fold change (FC) (HT-29 [18]): <=2 | GI50 (NCI-H522): 6.03 nM | inhibition at 0.05 µM (U2OS [19]): 42.7% | GI50 (SN12C): 3.94 nM | fold change (FC) (HT-29 [20]): -2.52 | GI50 (HT-29 [21]): 1.04 nM | CC50 (HT-29 [21]; [29]): 75.2 nM | fold change (FC) (HT-29 [22]): <=2 | fold change (FC) (U2OS [23]): 20 | fold change (FC) (HT-29 [24]): 5.19 | IC50 [25]: 1800 nM | fold change (FC) (HT-29 [26]): <=2 | GI50 (SF-268): 50.8 nM | GI50 (RXF 393): 7.12 nM | fold change (FC) (HT-29 [27]): <=2 | GI50 (SK-MEL-5): 2.31 nM | fold change (FC) (HT-29 [28]): -2.2 | GI50 (SNB-19): 7 nM | GI50 (Malme-3M): 4.77 nM
